Measurements from patent US10933077B2, “TLR4 inhibitors for the treatment of human infectious and inflammatory disorders” (UNIVERSITY OF PITTSBURGH—OF THE COMMONWEALTH SYSTEM OF …, priority 2010, dated 2021).

Target: T1, TLR4 (Mus musculus, UniProt Q9JHF9+Q9QUK6)
T1 construct: Swiss Webster (CFW) and NFkB-luciferase reporter mice were obtained from The Jackson Laboratory; tissue The Jackson Laboratory; host or cells: whole live Swiss Webster (CFW) mice
T1 sequence (Q9QUK6 26-835): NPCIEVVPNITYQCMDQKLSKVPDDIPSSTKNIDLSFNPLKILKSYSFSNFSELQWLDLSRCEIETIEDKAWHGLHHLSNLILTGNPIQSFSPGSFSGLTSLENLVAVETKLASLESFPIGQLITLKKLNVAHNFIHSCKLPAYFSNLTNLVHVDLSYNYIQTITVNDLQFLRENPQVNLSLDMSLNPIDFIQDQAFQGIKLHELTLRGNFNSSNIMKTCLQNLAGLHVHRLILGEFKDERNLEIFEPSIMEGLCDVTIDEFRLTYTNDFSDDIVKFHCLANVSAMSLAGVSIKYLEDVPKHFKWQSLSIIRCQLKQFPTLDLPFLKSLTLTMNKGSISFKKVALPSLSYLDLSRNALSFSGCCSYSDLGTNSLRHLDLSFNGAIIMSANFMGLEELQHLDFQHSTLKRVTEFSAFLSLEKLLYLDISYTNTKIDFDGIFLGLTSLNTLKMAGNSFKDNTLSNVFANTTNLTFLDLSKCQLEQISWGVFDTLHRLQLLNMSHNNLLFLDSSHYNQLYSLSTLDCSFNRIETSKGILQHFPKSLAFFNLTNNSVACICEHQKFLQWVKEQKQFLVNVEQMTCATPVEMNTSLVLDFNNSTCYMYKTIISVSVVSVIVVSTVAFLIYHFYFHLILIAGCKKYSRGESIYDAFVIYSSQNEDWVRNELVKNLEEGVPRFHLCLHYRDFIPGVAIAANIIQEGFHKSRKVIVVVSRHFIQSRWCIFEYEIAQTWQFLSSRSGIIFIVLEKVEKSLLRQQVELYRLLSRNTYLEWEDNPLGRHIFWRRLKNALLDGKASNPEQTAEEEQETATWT
T1 sequence (Q9JHF9 19-160): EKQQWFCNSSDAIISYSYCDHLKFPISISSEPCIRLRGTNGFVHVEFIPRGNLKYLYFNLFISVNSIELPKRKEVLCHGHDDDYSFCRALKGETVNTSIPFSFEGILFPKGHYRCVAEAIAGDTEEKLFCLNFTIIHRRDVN
Assay: CFW endotoxemia assay (observation of behavior and phenotype after LPS)
Format: in vivo
Settings: CFW mice, 20 nanomoles compound i.p. 30 minutes prior to LPS 2 mg/kg, 6 hours; for Observation (Compound “Negatives”): listed as “Negatives”; for Observation (Compound “Hits”): listed as “Hits”
Description: Compound preparation and delivery. All 65 identified compounds were received in solid form and stored at 4° C. until use. Stock solutions of each compound were made by dissolving the appropriate amount of each compound in dimethyl sulfoxide (DMSO) to yield a concentration of 10 mM. Immediately prior to injection into experimental animals, the compounds were diluted to an experimental concentration of 100 uM in phosphate-buffered saline (PBS). Total concentration of DMSO in the final diluted drug was 1%. Compounds were closely examined to insure that no precipitate formed prior to injection and were stored on ice until injection. All compounds were given via intraperitoneal (i.p.) injection in a total volume of 200 ul using a 1 cc syringe and 27 gauge needle. In all experiments listed below, the compounds were delivered to the experimental mice 30 minutes prior to injection with lipopolysaccharide (LPS) to induce endotoxemia. Control animals not receiving compound received 1% DMSO dissolved in PBS. Following drug injection, the mice were observed closely in their cages for signs of immediate toxicity or adverse reaction to the drug, including but not limited to piloerection, tachypnea, bleeding, abnormal or aggressive behavior, signs of altered mental status, and level of activity.
Induction of endotoxemia. All mice were housed and cared for at the Rangos Research Center, Children's Hospital of Pittsburgh (Pittsburgh, Pa.). All experiments were approved by the Children's Hospital of Pittsburgh Animal Care Committee and by the Institutional Review Board of the University of Pittsburgh. Swiss Webster (CFW) and NFkB-luciferase reporter mice were obtained from The Jackson Laboratory. Throughout the course of all experiments, mice were housed 4 per cage with access to food, water, and standard bedding. Endotoxemia was induced in all experiments by i.p. injection of LPS (Escherichia coli 0111:B4 purified by gel filtration chromatography, >99% pure, Sigma-Aldrich) at a dose of 2 mg/kg for 6 hours. At the end of each experiment, all animals were euthanized by CO2 hypoxia and cervical dislocation.
CFW endotoxemia assay. In order to effectively screen the entire compound list, the remaining compounds (7-60) were screened in a model of endotoxemia using CFW mice. Three separate experiments were performed: First, Compound 7 along with a repeat of compound 4 (n=3 mice per compound, mice age 5 weeks) were tested. Controls were saline injection alone (n=1), LPS 2 mg/kg 6 hrs (n=2). Second, compounds 3, 4, 6, 8-32 were tested (n=1 mouse each, 3 week old mice). Controls were saline injection alone (n=1), LPS 2 mg/kg 6 hrs (n=2), LPS 10 mg/kg 6 hrs (n=2), Bay 11 pretreatment 20 mg/kg for 30 minutes prior to LPS 2 mg/kg 6 hrs. Third, compounds 8, 16, 33-60 were tested (n=1 mouse each, 3 week old mice). Controls were saline injection alone (n=1), LPS 2 mg/kg 6 hrs (n=2), Bay 11 pretreatment 20 mg/kg for 30 minutes prior to LPS 2 mg/kg 6 hrs. Following 6 hours of endotoxemia, mice from the second and third experiments were observed within their cages and videotaped to document behavior and phenotypic differences to assess for an inhibitory effect of compound pretreatment on the effects of LPS. Mice were identified by a number previously placed using permanent marker on their tails. The degree of piloerection, tachypnea, location in the cage (center of cage versus corners), degree of activity, and behavior relative to other animals was observed and documented via video for each mouse.
Less activity, tachypnea, and piloerection are considered symptomatic of endotoxemia, so a decrease in these is consistent with TLR inhibition by the administered compound. Note that compounds listed as negatives may still be T4Ics at other concentrations or conditions.

| Molecule | Observation (Compound “Negatives”) | Observation (Compound “Hits”) |
| --- | --- | --- |
| CC(=O)N[C@H]1C(O)O[C@H](CO)[C@@H](O)[C@@H]1O[C@H](C)C(=O)N[C@@H](C)C(=O)N[C@H](CCC(=O)O)C(N)=O (stereo partly drawn) [Compound 40, (4R)-4-((2S)-2-((2R)-2-((3R,4R,5S,6R)-3-acetamido-2,5-dihydroxy-6-(hydroxymethyl)tetrahydro-2H-pyran-4-yloxy)propanamido)propanamido)-5-amino-5-oxopentanoic acid] | Less active, huddled in corner | – |
| C=CCO[C@@H]1O[C@H](COC(C)=O)[C@H](OC(C)=O)[C@H](OC(C)=O)[C@H]1NC(C)=O [Compound 47, allyl 3,4,6-tri-O-acetyl-2-(acetylamino)-2-deoxy-beta-D-lyxo-hexopyranoside] | – | More active, crawled over other mice, less piloerection |
| CC(=O)N[C@H]1[C@H](OC[C@H]2O[C@@H]3OC4(CCCCC4)O[C@@H]3[C@H]3OC4(CCCCC4)O[C@H]32)O[C@H](CO)[C@@H](O)[C@@H]1O [Compound 37, N-[(2R,3R,4R,5S,6R)-2-[(1′S,2′R,6′R,8′R,9′S)-dispiro[cyclohexane-1,4′-[3,5,7,10,12]pentaoxatricyclo[7.3.0.0^{2,6}]dodecane-11′,1″-cyclohexane]-8′-ylmethoxy]-4,5-dihydroxy-6-(hydroxymethyl)oxan-3-yl]acetamide] | More tachypneic, less active | – |
| COC1OC(COC(C)=O)C(OC(C)=O)C(OC(C)=O)C1NC(C)=O (stereo not drawn) [Compound 62, (5-acetamido-3,4-diacetyloxy-6-methoxy-oxan-2-yl)methyl acetate] | Nearly static, little movement, rigors | – |
| C=CCO[C@@H]1O[C@H](CO)[C@@H](O)[C@H](O)[C@H]1NC(C)=O [Compound 50, allyl 2-(acetylamino)-2-deoxy-beta-D-glycero-hexopyranoside] | – | More active |
| CCO[C@@H]1O[C@H](CO)[C@@H](O)[C@H](O)[C@H]1NC(C)=O [Compound 54, ethyl 2-(acetylamino)-2-deoxy-beta-D-glycero-hexopyranoside] | – | Less piloerection, less tachypnea |
| CC(=O)CC1OC(OC2C(NC(C)=O)C(O)OC(CO)C2OS(=O)(=O)O)C(O)C(O)C1O [Compound 43, 2-(acetylamino)-2-deoxy-3-O-(6,8-dideoxy-beta-L-glycero-octopyranosyl-7-ulose)-4-O-sulfo-L-erythro-hexopyranose] | – | More active, crawled over other mice, less piloerection |
| CCCCO[C@@H]1O[C@H](CO)[C@@H](OC)[C@H](OC)[C@H]1NC(C)=O [Compound 14, butyl 2-(acetylamino)-2-deoxy-3,4-di-O-methyl-beta-D-glucopyranoside] | Refused to move from corner, very tachpneic | – |
| CC(=O)NC1C(OC(C)C(=O)O)[C@H](O)C(CO)O[C@H]1O (stereo partly drawn) [Compound 30, 2-((2R,5S)-3-acetamido-2,5-dihydroxy-6-(hydroxymethyl)tetrahydro-2H-pyran-4-yloxy)propanoic acid] | – | Less tachypnea, more mobile |
| O=P(O)(O)OCC1OC(OP(=O)(O)O)C(O)[C@H](O)[C@@H]1O (stereo partly drawn) [Compound 8, cyclohexanamine compound with 1,6-di-O-phosphono-beta-D-glycero-hexopyranose (4:1) hydrate] | – | More mobile, less piloerection |
| CC(=O)N[C@H]1[C@H](OC[C@H]2O[C@@H]3OC(C)(C)O[C@@H]3[C@H]3OC(C)(C)O[C@H]32)O[C@H](CO)[C@@H](O)[C@@H]1O [Compound 21, N-((2R,3R,4R,5S,6R)-4,5-dihydroxy-6-(hydroxymethyl)-2-(((3aR,5R,5aS,8aS,8bR)-2,2,7,7-tetramethyltetrahydro-3aH-bis[1,3]dioxolo[4,5-b:4′,5′-d]pyran-5-yl)methoxy)tetrahydro-2H-pyran-3-yl) acetamide] | – | More active, crawled over other mice, less piloerection |
| CC(=O)N[C@@H]1[C@@H](O)[C@@H](O)[C@@H](CO)O[C@@H]1O [Compound 31, 2-(acetylamino)-2-deoxy-alpha-D-lyxo-hexopyranose] | More tachypneic, more piloerection | – |
| (2R,3S,4R,5R,6R)-5-acetamido-2-(acetoxymethyl)-6-(((3aR,5R,5aS,8aS,8bR)-2,2,7,7-tetramethyltetrahydro-3aH-bis[1,3]dioxolo[4,5-b:4′,5′-d]pyran-5-yl)methoxy)tetrahydro-2H-pyran-3,4-diyl-diacetate [Compound 38] | Less active | – |
| CCO[C@@H]1O[C@H](COC(C)=O)[C@@H](OC(C)=O)[C@H](OC(C)=O)[C@H]1NC(C)=O [Compound 55, ethyl 3,4,6-tri-O-acetyl-2-(acetylamino)-2-deoxy-beta-D-glycero-hexopyranoside] | – | Less piloerection, less tachypnea, more active |
| CCOC1OC(CO)C(O)C(O)C1NC(C)=O (stereo not drawn) [Compound 63, N-[2-ethoxy-4,5-dihydroxy-6-(hydroxymethyl)oxan-3-yl]acetamide] | – | More mobile, less piloerection |
| COC(=O)C1(OC)CC(O)C(NC(C)=O)C(C(O)C(O)CO)O1 [Compound 25, dimethyl 5-(acetylamino)-3,5-dideoxy-D-erythro-non-2-ulopyranosidonate] | More piloerection, less mobile than other in the cage | – |
| CC(=O)NC1C(O)OC(CO)C(OC2OC(C)C(O)C(O)C2O)C1OC1OC(CO)C(O)C(O)C1O (stereo not drawn) [Compound 45, 2-(acetylamino)-2-deoxy-4-O-(6-deoxyhexopyranosyl)-3-O-hexopyranosylhexopyranose] | – | More active, crawled over other mice, less piloerection |
| CC(=O)N[C@H]1[C@H](O[C@H]2[C@H](O)[C@@H](O)[C@H](O[C@H]3[C@H](O)[C@@H](CO)OC(O)[C@@H]3NC(C)=O)O[C@@H]2C(=O)O)O[C@H](CO)[C@@H](O)[C@H]1O[C@H]1O[C@H](C(=O)O)[C@@H](O)[C@H](O)[C@H]1O (stereo partly drawn) [Compound 42, 2-(acetylamino)-3-O-{4-O-[2-(acetylamino)-2-deoxy-3-O-alpha-D-xylo-hexopyranuronosyl-beta-D-ribo-hexopyranosyl]-beta-D-xylo-hexopyranuronosyl}-2-deoxy-D-glucopyranose] | – | Less tachypnea, more mobile |
